Counter-ions that a name gives are not always drawn.
How the values were obtained:
PDE10A (human) = target: T1, PDE10A (human) (Homo sapiens, UniProt Q9Y233); assay: Measurement of PDE activity (HTRF cAMP kit), human PDE10A; type: biochemical; conditions: PDE enzymatic reaction, substrate 20 nM for PDE10, 60 minutes at 29 C
T1 construct: purchased BPS Bioscience
Outline: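 Recombinant human PDE10A (10–250 pM range across PDEs) with 20 nM cAMP substrate in 20 mM Tris-HCl pH 7.5, 10 mM MgCl2, 0.1% BSA, compound pre-mixed with enzyme. Ran 60 min at 29 °C. Remaining cAMP read by HTRF, converted to % of uninhibited activity, and IC50 fitted.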

[1] = Determination of the microsomal half-life, rat liver microsomes; conditions: rat, liver microsomes, pH 7.4
[2] = Determination of the microsomal half-life, human liver microsomes; conditions: human, liver microsomes, pH 7.4
Description: The test substances were incubated in a concentration of 0.5 μM as follows:
0.5 μM test substance are preincubated together with liver microsomes from different species (from rat, human or other species) (0.25 mg of microsomal protein/10 in 0.05 M potassium phosphate buffer of pH 7.4 in microtiter plates at 37° C. for 5 min. The reaction is started by adding NADPH (1 mg/mL). After 0, 5, 10, 15, 20 and 30 min., 50 μl aliquots are removed, and the reaction is immediately stopped and cooled with the same volume of acetonitrile. The samples are frozen until analyzed. The remaining concentration of undegraded test substance is determined by MSMS. The half-life (T½) is determined from the gradient of the signal of test substance/unit time plot, it being possible to calculate the half-life of the test substance, assuming first order kinetics, from the decrease in the concentration of the compound with time. The microsomal clearance (mCl) is calculated from mCl=ln 2/T½/(content of microsomal protein in mg/ml)×1000 [ml/min/mg]

T1 sequence (Q9Y233 whole entry): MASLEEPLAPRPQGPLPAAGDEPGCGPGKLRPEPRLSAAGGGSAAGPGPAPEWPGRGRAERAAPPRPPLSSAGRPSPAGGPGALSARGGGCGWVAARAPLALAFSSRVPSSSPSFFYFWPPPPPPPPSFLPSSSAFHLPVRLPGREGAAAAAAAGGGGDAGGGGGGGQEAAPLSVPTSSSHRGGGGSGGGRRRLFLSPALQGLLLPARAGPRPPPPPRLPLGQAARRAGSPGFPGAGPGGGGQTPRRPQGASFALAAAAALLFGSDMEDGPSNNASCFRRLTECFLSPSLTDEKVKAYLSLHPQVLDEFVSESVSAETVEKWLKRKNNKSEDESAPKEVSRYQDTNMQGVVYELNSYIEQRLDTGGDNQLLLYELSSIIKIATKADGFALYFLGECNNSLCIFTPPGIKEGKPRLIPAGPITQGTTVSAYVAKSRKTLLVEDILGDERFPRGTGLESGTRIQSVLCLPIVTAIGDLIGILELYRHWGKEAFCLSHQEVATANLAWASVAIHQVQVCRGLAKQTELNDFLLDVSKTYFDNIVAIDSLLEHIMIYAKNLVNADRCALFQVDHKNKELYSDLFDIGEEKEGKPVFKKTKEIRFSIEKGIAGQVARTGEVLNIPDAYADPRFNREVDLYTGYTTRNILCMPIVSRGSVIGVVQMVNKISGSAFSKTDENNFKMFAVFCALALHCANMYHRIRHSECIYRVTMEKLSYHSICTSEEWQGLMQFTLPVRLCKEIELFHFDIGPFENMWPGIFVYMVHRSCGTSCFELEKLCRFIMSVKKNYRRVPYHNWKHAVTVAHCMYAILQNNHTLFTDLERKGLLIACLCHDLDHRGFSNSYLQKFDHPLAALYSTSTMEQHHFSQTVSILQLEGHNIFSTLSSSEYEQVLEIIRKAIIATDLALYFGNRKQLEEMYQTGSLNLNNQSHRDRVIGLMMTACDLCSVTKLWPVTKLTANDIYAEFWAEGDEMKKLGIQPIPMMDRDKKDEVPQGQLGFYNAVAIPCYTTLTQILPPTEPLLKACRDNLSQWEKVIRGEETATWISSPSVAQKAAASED

Cc1ccc2c(c1)nc(CCN1Cc3cccc(N4CCOCC4)c3C1=O)n2C [Example 306, 2-[2-(1,5-Dimethyl-1H-benzoimidazol-2-yl)-ethyl]-7-morpholin-4-yl-2,3-dihydro-isoindol-1-one trifluoroacetate]
IC50 (PDE10A (human)): < 100 nM
microsomal CLint at 0.5 μM [1]: < 100 µL/min/mg
microsomal CLint at 0.5 μM [2]: 100 to 220 µL/min/mg

O=C1c2cccc(N3CCOCC3)c2CN1CCc1cn2ccccc2n1 [Example 308, 2-(2-Imidazo[1,2-a]pyridin-2-yl-ethyl)-4-morpholin-4-yl-2,3-dihydro-isoindol-1-one]
IC50 (PDE10A (human)): 100 to 200 nM
microsomal CLint at 0.5 μM [1]: < 100 µL/min/mg
microsomal CLint at 0.5 μM [2]: < 100 µL/min/mg

O=C1c2c(cccc2N2CCOCC2)CN1CCc1cn2ccccc2n1 [Example 310, 2-(2-Imidazo[1,2-a]pyridin-2-yl-ethyl)-7-morpholin-4-yl-2,3-dihydro-isoindol-1-one]
IC50 (PDE10A (human)): < 100 nM
microsomal CLint at 0.5 μM [1]: < 100 µL/min/mg
microsomal CLint at 0.5 μM [2]: < 100 µL/min/mg

O=C1c2c(cccc2-c2cncnc2)CN1CCc1nc2ccccc2[nH]1 [Example 312, 2-[2-(1H-Benzoimidazol-2-yl)-ethyl]-7-pyrimidin-5-yl-2,3-dihydro-isoindol-1-one trifluoroacetate]
IC50 (PDE10A (human)): < 100 nM
microsomal CLint at 0.5 μM [1]: < 100 µL/min/mg
microsomal CLint at 0.5 μM [2]: < 100 µL/min/mg

Cn1nccc1-c1cccc2c1C(=O)N(CCc1nc3ccccc3[nH]1)C2 [Example 313, 2-[2-(1H-Benzoimidazol-2-yl)-ethyl]-7-(2-methyl-2H-pyrazol-3-yl)-2,3-dihydro-isoindol-1-one trifluoroacetate]
IC50 (PDE10A (human)): 200 to 500 nM
microsomal CLint at 0.5 μM [1]: < 100 µL/min/mg
microsomal CLint at 0.5 μM [2]: < 100 µL/min/mg

O=C1c2cccc(-c3cc[nH]n3)c2CN1CCc1cn2ccccc2n1 [Example 314, 2-(2-Imidazo[1,2-a]pyridin-2-yl-ethyl)-4-(1H-pyrazol-3-yl)-2,3-dihydro-isoindol-1-one trifluoroacetate]
IC50 (PDE10A (human)): < 100 nM
microsomal CLint at 0.5 μM [1]: < 100 µL/min/mg
microsomal CLint at 0.5 μM [2]: < 100 µL/min/mg

O=C1c2cccc(-c3ccncc3)c2CN1CCc1cn2ccccc2n1 [Example 316, 2-(2-Imidazo[1,2-a]pyridin-2-yl-ethyl)-4-pyridin-4-yl-2,3-dihydro-isoindol-1-one]
IC50 (PDE10A (human)): < 100 nM
microsomal CLint at 0.5 μM [1]: 100 to 220 µL/min/mg
microsomal CLint at 0.5 μM [2]: < 100 µL/min/mg

O=C1c2c(cccc2N2C[C@@H]3CCCNC[C@H]3C2)CN1CCc1ccc2ccccc2n1 [Example 317, 7-(3aS,8aR)-Octahydro-pyrrolo[3,4-c]azepin-2-yl-2-(2-quinolin-2-yl-ethyl)-2,3-dihydro-isoindol-1-one trifluoroacetate]
IC50 (PDE10A (human)): 200 to 500 nM
microsomal CLint at 0.5 μM [1]: < 100 µL/min/mg
microsomal CLint at 0.5 μM [2]: 100 to 220 µL/min/mg

Cc1ncc(-c2ccnc3c2C(=O)N(CCc2ccc4ccccc4n2)C3)s1 [Example 326, 4-(2-Methyl-thiazol-5-yl)-6-(2-quinolin-2-yl-ethyl)-6,7-dihydro-pyrrolo[3,4-b]pyridin-5-one]
IC50 (PDE10A (human)): < 100 nM
microsomal CLint at 0.5 μM [1]: 100 to 220 µL/min/mg
microsomal CLint at 0.5 μM [2]: 100 to 220 µL/min/mg

O=C1c2c(-c3cccnc3)ccnc2CN1CCc1ccc2ccccc2n1 [Example 329, 4-Pyridin-3-yl-6-(2-quinolin-2-yl-ethyl)-6,7-dihydro-pyrrolo[3,4-b]pyridin-5-one]
IC50 (PDE10A (human)): < 100 nM
microsomal CLint at 0.5 μM [1]: 100 to 220 µL/min/mg
microsomal CLint at 0.5 μM [2]: 100 to 220 µL/min/mg

Cc1c(-c2ccnc3c2C(=O)N(CCc2ccc4ccccc4n2)C3)cnn1C [Example 332, 4-(1,5-Dimethyl-1H-pyrazol-4-yl)-6-(2-quinolin-2-yl-ethyl)-6,7-dihydro-pyrrolo[3,4-b]pyridin-5-one]
IC50 (PDE10A (human)): < 100 nM
microsomal CLint at 0.5 μM [1]: < 100 µL/min/mg
microsomal CLint at 0.5 μM [2]: < 100 µL/min/mg

Cc1cc(-c2ccnc3c2C(=O)N(CCc2ccc4ccccc4n2)C3)n(C)n1 [Example 334, 4-(2,5-Dimethyl-2H-pyrazol-3-yl)-6-(2-quinolin-2-yl-ethyl)-6,7-dihydro-pyrrolo[3,4-b]pyridin-5-one]
IC50 (PDE10A (human)): 100 to 200 nM
microsomal CLint at 0.5 μM [1]: < 100 µL/min/mg
microsomal CLint at 0.5 μM [2]: < 100 µL/min/mg

Cc1noc(C)c1-c1ccnc2c1C(=O)N(CCc1ccc3ccccc3n1)C2 [Example 335, 4-(3,5-Dimethyl-isoxazol-4-yl)-6-(2-quinolin-2-yl-ethyl)-6,7-dihydro-pyrrolo[3,4-b]pyridin-5-one]
IC50 (PDE10A (human)): 200 to 500 nM
microsomal CLint at 0.5 μM [1]: > 220 µL/min/mg
microsomal CLint at 0.5 μM [2]: 100 to 220 µL/min/mg

Cn1ccc(-c2ccnc3c2C(=O)N(CCc2ccc4ccccc4n2)C3)c1 [Example 337, 4-(1-Methyl-1H-pyrrol-3-yl)-6-(2-quinolin-2-yl-ethyl)-6,7-dihydro-pyrrolo[3,4-b]pyridin-5-one]
IC50 (PDE10A (human)): 100 to 200 nM
microsomal CLint at 0.5 μM [1]: > 220 µL/min/mg
microsomal CLint at 0.5 μM [2]: 100 to 220 µL/min/mg

O=C1c2c(-c3ccnnc3)ccnc2CN1CCc1ccc2ccccc2n1 [Example 338, 4-Pyridazin-4-yl-6-(2-quinolin-2-yl-ethyl)-6,7-dihydro-pyrrolo[3,4-b]pyridin-5-one]
IC50 (PDE10A (human)): < 100 nM
microsomal CLint at 0.5 μM [1]: < 100 µL/min/mg
microsomal CLint at 0.5 μM [2]: < 100 µL/min/mg

CCOc1ncc(-c2cccc3c2CN(CCc2ccc4ccccc4n2)C3=O)cn1 [Example 343, 4-(2-Ethoxy-pyrimidin-5-yl)-2-(2-quinolin-2-yl-ethyl)-2,3-dihydro-isoindol-1-one]
IC50 (PDE10A (human)): 200 to 500 nM
microsomal CLint at 0.5 μM [1]: > 220 µL/min/mg
microsomal CLint at 0.5 μM [2]: 100 to 220 µL/min/mg

O=C1c2cccc(-c3ccnnc3)c2CN1CCc1ccc2ccccc2n1 [Example 353, 4-Pyridazin-4-yl-2-(2-quinolin-2-yl-ethyl)-2,3-dihydro-isoindol-1-one]
IC50 (PDE10A (human)): 100 to 200 nM
microsomal CLint at 0.5 μM [1]: 100 to 220 µL/min/mg
microsomal CLint at 0.5 μM [2]: < 100 µL/min/mg

CN(C)C1CCN(c2ccnc3c2C(=O)N(CCc2ccc4ccccc4n2)C3)CC1 [Example 363, 4-(4-Dimethylamino-piperidin-1-yl)-6-(2-quinolin-2-yl-ethyl)-6,7-dihydro-pyrrolo[3,4-b]pyridin-5-one hydrochloride]
IC50 (PDE10A (human)): 200 to 500 nM
microsomal CLint at 0.5 μM [1]: < 100 µL/min/mg
microsomal CLint at 0.5 μM [2]: < 100 µL/min/mg

Cn1c(CCN2Cc3nccc(-c4cncnc4)c3C2=O)nc2ccccc21 [Example 364, 6-[2-(1-Methyl-1H-benzoimidazol-2-yl)-ethyl]-4-pyrimidin-5-yl-6,7-dihydro-pyrrolo[3,4-b]pyridin-5-one]
IC50 (PDE10A (human)): < 100 nM
microsomal CLint at 0.5 μM [1]: < 100 µL/min/mg
microsomal CLint at 0.5 μM [2]: < 100 µL/min/mg

O=C1c2c(-c3cn[nH]c3)ccnc2CN1CCc1cn2ccccc2n1 [Example 365, 6-(2-Imidazo[1,2-a]pyridin-2-yl-ethyl)-4-(1H-pyrazol-4-yl)-6,7-dihydro-pyrrolo[3,4-b]pyridin-5-one]
IC50 (PDE10A (human)): < 100 nM
microsomal CLint at 0.5 μM [1]: 100 to 220 µL/min/mg
microsomal CLint at 0.5 μM [2]: < 100 µL/min/mg

O=C(O)C1CCN(c2ccnc3c2C(=O)N(CCc2ccc4ccccc4n2)C3)CC1 [Example 366, 1-[5-Oxo-6-(2-quinolin-2-yl-ethyl)-6,7-dihydro-5H-pyrrolo[3,4-b]pyridin-4-yl]-piperidine-4-carboxylic acid]
IC50 (PDE10A (human)): 100 to 200 nM
microsomal CLint at 0.5 μM [1]: < 100 µL/min/mg
microsomal CLint at 0.5 μM [2]: < 100 µL/min/mg

Cn1c(CCN2Cc3nccc(-c4ccncc4)c3C2=O)nc2ccccc21 [Example 367, 6-[2-(1-Methyl-1H-benzoimidazol-2-yl)-ethyl]-4-pyridin-4-yl-6,7-dihydro-pyrrolo[3,4-b]pyridin-5-one]
IC50 (PDE10A (human)): < 100 nM
microsomal CLint at 0.5 μM [1]: < 100 µL/min/mg
microsomal CLint at 0.5 μM [2]: < 100 µL/min/mg

Cn1c(CCN2Cc3nccc(-c4cccnc4)c3C2=O)nc2ccccc21 [Example 368, 6-[2-(1-Methyl-1H-benzoimidazol-2-yl)-ethyl]-4-pyridin-3-yl-6,7-dihydro-pyrrolo[3,4-b]pyridin-5-one]
IC50 (PDE10A (human)): < 100 nM
microsomal CLint at 0.5 μM [1]: < 100 µL/min/mg
microsomal CLint at 0.5 μM [2]: < 100 µL/min/mg

O=C1c2c(-c3ccncc3)ccnc2CN1CCc1cn2ccccc2n1 [Example 369, 6-(2-Imidazo[1,2-a]pyridin-2-yl-ethyl)-4-pyridin-4-yl-6,7-dihydro-pyrrolo[3,4-b]pyridin-5-one]
IC50 (PDE10A (human)): < 100 nM
microsomal CLint at 0.5 μM [1]: < 100 µL/min/mg
microsomal CLint at 0.5 μM [2]: < 100 µL/min/mg

COc1ccc(-c2ccncc2)c2c1CN(CCc1nc3ccccc3n1C)C2=O [Example 370, 4-Methoxy-2-[2-(1-methyl-1H-benzoimidazol-2-yl)-ethyl]-7-pyridin-4-yl-2,3-dihydro-isoindol-1-one]
IC50 (PDE10A (human)): < 100 nM
microsomal CLint at 0.5 μM [1]: < 100 µL/min/mg
microsomal CLint at 0.5 μM [2]: > 220 µL/min/mg

COc1ccc(N2CCOCC2)c2c1CN(CCc1nc3ccccc3n1C)C2=O [Example 371, 4-Methoxy-2-[2-(1-methyl-1H-benzoimidazol-2-yl)-ethyl]-7-morpholin-4-yl-2,3-dihydro-isoindol-1-one]
IC50 (PDE10A (human)): < 100 nM
microsomal CLint at 0.5 μM [1]: < 100 µL/min/mg
microsomal CLint at 0.5 μM [2]: > 220 µL/min/mg

COc1ccc(-c2cn[nH]c2)c2c1CN(CCc1cn3ccccc3n1)C2=O [Example 372, 2-(2-Imidazo[1,2-a]pyridin-2-yl-ethyl)-4-methoxy-7-(1H-pyrazol-4-yl)-2,3-dihydro-isoindol-1-one]
IC50 (PDE10A (human)): < 100 nM
microsomal CLint at 0.5 μM [1]: < 100 µL/min/mg
microsomal CLint at 0.5 μM [2]: < 100 µL/min/mg

COc1ccc(-c2ccnn2C)c2c1CN(CCc1cn3ccccc3n1)C2=O [Example 373, 2-(2-Imidazo[1,2-a]pyridin-2-yl-ethyl)-4-methoxy-7-(2-methyl-2H-pyrazol-3-yl)-2,3-dihydro-isoindol-1-one]
IC50 (PDE10A (human)): < 100 nM
microsomal CLint at 0.5 μM [1]: < 100 µL/min/mg
microsomal CLint at 0.5 μM [2]: < 100 µL/min/mg

COc1ccc(-c2ccncc2)c2c1CN(CCc1cn3ccccc3n1)C2=O [Example 374, 2-(2-Imidazo[1,2-a]pyridin-2-yl-ethyl)-4-methoxy-7-pyridin-4-yl-2,3-dihydro-isoindol-1-one]
IC50 (PDE10A (human)): < 100 nM
microsomal CLint at 0.5 μM [1]: < 100 µL/min/mg
microsomal CLint at 0.5 μM [2]: < 100 µL/min/mg

O=C1c2c(-c3ccncc3)ccnc2CN1CCc1nc2ccccc2s1 [Example 375, 6-(2-Benzothiazol-2-yl-ethyl)-4-pyridin-4-yl-6,7-dihydro-pyrrolo[3,4-b]pyridin-5-one]
IC50 (PDE10A (human)): < 100 nM
microsomal CLint at 0.5 μM [1]: < 100 µL/min/mg
microsomal CLint at 0.5 μM [2]: < 100 µL/min/mg
